Where two headings read alike, the source gives them in different places.
Biological target: T1, yeast HSP90 (Saccharomyces cerevisiae, UniProt P02829)
T1 construct: made in house; host or cells: E. coli
Assay: Malachite green HSP90 ATPase assay
Format: biochemical
From the text: Two methods have been developed to measure the intrinsic ATPase activity of HSP90, using yeast HSP90 as a model system. The first method utilises a regenerating coupled enzyme assay. The second assay, based on the use of malachite green for the measurement of inorganic phosphate, was designed for high throughput screening (HTS) to identify novel HSP90 inhibitor drug candidates.
Colorimetric assays for the determination of phosphate, based on the formation of a phosphomolybdate complex, can be carried out in a few steps with inexpensive reagents and are well suited to the automation required for high throughput screening (see, e.g., Cogan et al., 1999). Enzymes that release inorganic phosphate are assayed using the reaction of the cationic dye, malachite green, with the a complex formed by a reaction of the inorganic phosphate with molybdate to generate a blue-green colour with an absorbance maximum at 610 nm (see, e.g., Baykov et al., 1988; Harder et al., 1994; Maehama et al., 2000). The method has been used in both high throughput (see, e.g., Rumsfeld et al., 2000) and ultra-high throughput screening formats (see, e.g., Layery et al., 2001) for a variety of non-HSP90 ATPases. However, this method is complicated by the non-enzymatic hydrolysis of ATP in the presence of acidic malachite green reagent, causing an increase in colour (see, e.g., Chan et al., 1986; Henkel et al., 1988). This process is mediated by molybdate and can be overcome by the addition of sodium citrate immediately after the reagent (see, e.g., Lanzetta et al., 1979; Schirmer et al., 1998; Baginski et al., 1975). This modification has been adapted to the 96-well microtitre plate assay previously described for other ATPases (see, e.g., Lanzetta et al., 1979) to produce the following protocol for HSP90 ATPase, which is suitable for high throughput screening.
Chemicals are of the highest purity commercially available and all aqueous solutions are made up in AR water. Because of the need to minimise contamination with inorganic phosphate, precautions should be taken with solutions and apparatus used in the assays. Glassware and pH meters are rinsed with double distilled or deionised water before use and, wherever possible, plastic ware should be used. Gloves are worn for all procedures. • (1) Immulon 96-well (Thermo Labsystems, Basingstoke, UK) or Cliniplate 384-well flat-bottomed polystyrene multiwell plates (Thermo Labsystems). • (2) Assay buffer of (a) 100 mM Tris-HCl, pH 7.4, (b) 20 mM KCl, (c) 6 mM MgCl2. Stored at 4° C. • (3) 0.0812% (w/v) malachite green (M 9636, Sigma Aldrich Ltd., Poole, UK). Stored at room temperature. • (4) 2.32% (w/v) polyvinyl alcohol USP (P 1097, Sigma Aldrich Ltd, Poole, UK) in boiling water (see Comment 1), allowed to cool, and stored at room temperature. • (5) 5.72% (w/v) ammonium molybdate in 6 M hydrochloric acid. Stored at room temperature. • (6) 34% (w/v) sodium citrate. Stored at room temperature. • (7) ATP, disodium salt, special quality (519979, Boehringer Mannheim, Lewes, UK). Stored at 4° C. • (8) E. coli expressed yeast HSP90 protein, purified >95% (see, e.g., Panaretou et al., 1998) and stored at −80° C. as 10 μl aliquots containing 0.5 mg of protein. Method
The following protocol was used: • (1) On the day of use, prepare the malachite green reagent from the stock solutions. Mix (a) 2 parts of malachite green, (b) 1 part of polyvinyl alcohol, (c) 1 part of ammonium molybdate, and (d) 2 parts of water. Initially, the reagent is a dark brown colour, but after standing at room temperature for about 2 h, this becomes a golden yellow colour and is ready for use. • (2) For the high throughput screening assays, the test compounds are dissolved at 200 μM in 2.0% DMSO and contained in daughter plates derived from the chemical libraries. Transfer 5 μl of each sample from the daughter plate to each well of the assay plate using automated equipment (see Comment 3). This represents a final concentration in the well of 40 μM.

[1] = malachite green assay, 1 mM ATP, ±SD if n=3–5, read-out: HSP90 ATPase inhibition IC50
[2] = activity class, read-out: Hsp90 IC50

T1 sequence (P02829 whole entry, looked up): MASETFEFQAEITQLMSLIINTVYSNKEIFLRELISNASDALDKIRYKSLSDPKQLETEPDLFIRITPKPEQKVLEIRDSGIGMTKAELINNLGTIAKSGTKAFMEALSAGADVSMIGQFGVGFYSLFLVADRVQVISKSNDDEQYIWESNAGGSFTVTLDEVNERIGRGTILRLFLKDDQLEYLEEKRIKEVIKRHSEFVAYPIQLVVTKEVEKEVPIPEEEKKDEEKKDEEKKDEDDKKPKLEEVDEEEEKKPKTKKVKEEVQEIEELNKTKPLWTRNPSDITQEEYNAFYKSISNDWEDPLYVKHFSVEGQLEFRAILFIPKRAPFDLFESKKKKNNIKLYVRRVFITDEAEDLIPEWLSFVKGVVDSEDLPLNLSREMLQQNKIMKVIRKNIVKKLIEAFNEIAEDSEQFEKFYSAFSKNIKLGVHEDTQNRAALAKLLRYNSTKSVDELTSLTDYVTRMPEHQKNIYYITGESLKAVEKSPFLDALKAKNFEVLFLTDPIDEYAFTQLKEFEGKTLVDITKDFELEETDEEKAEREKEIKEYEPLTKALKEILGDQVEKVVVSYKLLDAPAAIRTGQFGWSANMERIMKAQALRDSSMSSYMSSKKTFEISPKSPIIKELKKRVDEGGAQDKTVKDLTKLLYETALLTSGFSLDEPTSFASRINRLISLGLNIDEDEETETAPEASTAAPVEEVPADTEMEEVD

| Compound | IC50 [2] [µM] | other results |
| --- | --- | --- |
| CCCc1cc(-c2n[nH]c(C)c2-c2ccc3c(c2)OCCO3)c(O)cc1O [CCT018156] |  | IC50 [1]: 52.8 ± 12 µM |
| CCCc1cc(-c2n[nH]c(C)c2-c2ccc3c(c2)OCO3)c(O)cc1O [CCT018158] |  | IC50 [1]: 19 µM |
| CCc1cc(-c2n[nH]c(C)c2-c2ccc3c(c2)OCCO3)c(O)cc1O [Example 49] |  | IC50 (Hsp90 IC50, activity class): < 10 µM |
| CCc1cc(-c2n[nH]cc2-c2ccc(OC)c(OC)c2)c(O)cc1O [Example 50] | < 10 |  |
| COc1ccc(-c2c[nH]nc2-c2ccc(O)cc2O)cc1OC [Example 51] | 10 to 100 |  |
| COc1ccc(-c2c[nH]nc2-c2cc(Cl)c(O)cc2O)cc1OC [Example 52] | < 10 |  |
| Oc1cc(O)c(-c2n[nH]cc2-c2ccccc2)cc1Cl [Example 53] | < 10 |  |
| CCc1cc(-c2n[nH]cc2-c2ccccc2)c(O)cc1O [Example 54] | < 10 |  |
| Oc1ccc(-c2[nH]ncc2-c2ccccc2)c(O)c1 [Example 55] | 10 to 100 |  |
| Oc1ccc(-c2[nH]ncc2-c2ccc(Br)cc2)c(O)c1 [Example 56] | > 10 |  |
| Oc1cc(O)c(-c2n[nH]cc2-c2ccc(Br)cc2)cc1Cl [Example 57] | < 10 |  |
| Cc1[nH]nc(-c2cc(Cl)c(O)cc2O)c1-c1ccc(Br)cc1 [Example 58] | < 10 |  |
| Cc1[nH]nc(-c2ccc(O)cc2O)c1-c1ccccc1 [Example 59] | > 10 |  |
| Oc1cc(O)c(-c2n[nH]cc2-c2ccccc2Br)cc1Cl [Example 60] | < 10 |  |
| N#CCCCOc1ccc(-c2cn[nH]c2-c2cc(Cl)c(O)cc2O)cc1 [Example 61] | < 10 |  |
| Oc1cc(O)c(-c2n[nH]cc2-c2ccc(-c3ccc(F)cc3)cc2)cc1Cl [Example 62] | < 10 |  |
| Oc1cc(O)c(-c2n[nH]cc2-c2ccc3c(c2)OCCO3)cc1Cl [Example 63] |  | IC50 (Hsp90 IC50, activity class): < 10 µM |
| COc1ccc(-c2c(-c3cc(Cl)c(O)cc3O)n[nH]c2C)cc1 [Example 64] |  | IC50 (Hsp90 IC50, activity class): < 10 µM |
| Oc1cc(O)c(-c2n[nH]cc2-c2ccccc2F)cc1Cl [Example 65] | < 10 |  |
| Oc1cc(O)c(-c2n[nH]cc2-c2cccc(Br)c2)cc1Cl [Example 66] | < 10 |  |
| Oc1cc(O)c(-c2n[nH]cc2-c2cccc(OCCF)c2)cc1Cl [Example 67] | < 10 |  |

| Compound | IC50 [2] [µM] | other results |
| --- | --- | --- |
| COc1ccc(-c2cccc(-c3c[nH]nc3-c3cc(Cl)c(O)cc3O)c2)cc1OC [Example 68] | 10 to 100 |  |
| Cc1[nH]nc(-c2cc(Cl)c(O)cc2O)c1-c1ccccc1Br [Example 69] | 10 to 100 |  |
| Cc1n[nH]c(-c2cc(Cl)c(O)cc2O)c1-c1ccc(OCCCC#N)cc1 [Example 70] | < 10 |  |
| COc1ccccc1-c1c[nH]nc1-c1cc(Cl)c(O)cc1O [Example 71] | 10 to 100 |  |
| CCOc1cccc(-c2ccc(-c3c[nH]nc3-c3cc(Cl)c(O)cc3O)cc2)c1 [Example 72] | < 10 |  |
| N#CCCCOc1cccc(-c2c[nH]nc2-c2cc(Cl)c(O)cc2O)c1 [Example 73] | < 10 |  |
| N#CCCCOc1ccccc1-c1c[nH]nc1-c1cc(Cl)c(O)cc1O [Example 74] | < 10 |  |
| O=C(O)CCCOc1ccc(-c2c[nH]nc2-c2cc(Cl)c(O)cc2O)cc1 [Example 75] | < 10 |  |
| Oc1ccc(-c2c[nH]nc2-c2cc(Cl)c(O)cc2O)cc1 [Example 76] | < 10 |  |
| COc1cccc(-c2c[nH]nc2-c2cc(Cl)c(O)cc2O)c1 [Example 77] | < 10 |  |
| Cc1[nH]nc(-c2cc(Cl)c(O)cc2O)c1-c1ccccc1 [Example 78] | < 10 |  |
| CCc1cc(-c2n[nH]cc2-c2ccc(Br)cc2)c(O)cc1O [Example 79] | < 10 |  |
| CCc1cc(-c2n[nH]cc2-c2ccc([N+](=O)[O-])cc2)c(O)cc1OC [Example 80] | 10 to 100 |  |
| Cc1[nH]nc(-c2ccc(O)cc2O)c1-c1ccc2c(c1)OCCO2 [Example 81] |  | IC50 (Hsp90 IC50, activity class): 10 to 100 µM |
| CCc1cc(-c2n[nH]c(C)c2-c2nc3ccccc3n2C)c(O)cc1O [Example 82] | 10 to 100 |  |
| CCc1cc(-c2n[nH]cc2-c2ccc3c(c2)OCCO3)c(O)cc1O [Example 83] | < 10 |  |
| CCc1cc(-c2n[nH]c(C(F)(F)F)c2-c2nc3ccccc3s2)c(O)cc1O [Example 84] | 10 to 100 |  |
| Cc1[nH]nc(-c2ccc(O)cc2O)c1-c1ccc2c(c1)OCCCO2 [Example 86] | > 10 |  |
| CCc1cc(-c2n[nH]cc2-c2ccc3c(c2)OCO3)c(O)cc1O [Example 87] | < 10 |  |
| CCCc1cc(-c2n[nH]c(C)c2-c2ccc3c(c2)OCCO3)c(O)cc1O [Example 88] | 10 to 100 |  |
| Cc1nc(-c2c[nH]nc2-c2cc(C)c(O)cc2O)cs1 [Example 90] | 10 to 100 |  |

| Compound | IC50 [2] [µM] | other results |
| --- | --- | --- |
| CCc1cc(-c2n[nH]cc2-c2cscn2)c(O)cc1O [Example 91] | 10 to 100 |  |
| COc1ccc(-c2c(-c3ccc(O)cc3O)n[nH]c2C)cc1 [Example 92] |  | IC50 (Hsp90 IC50, activity class): 10 to 100 µM |
| COc1ccc(-c2c(-c3cc(Br)c(O)cc3O)n[nH]c2C)cc1 [Example 93, 4-Bromo-6-[4-(4-methoxy-phenyl)-5-methyl-1H-pyrazol-3-yl]-benzene-1,3-diol] |  | IC50 (Hsp90 IC50, activity class): < 10 µM |
| COc1ccc(-c2c(-c3cc(-c4ccccc4)c(O)cc3O)n[nH]c2C)cc1 [Example 94] | < 10 |  |
| COc1ccc(-c2c(-c3cc(CCc4ccccc4)c(O)cc3O)n[nH]c2C)cc1 [Example 95] | < 10 |  |
| CCCc1cc(-c2[nH]ncc2-c2ccc(C(=O)OCC)o2)c(O)cc1O [Example 97] | 10 to 100 |  |
| CCCc1cc(-c2n[nH]c(C)c2-c2ccc(C(=O)OCC)o2)c(O)cc1O [Example 98] | 10 to 100 |  |
| CCc1cc(-c2[nH]nc(CCC(=O)O)c2-c2nc3ccccc3n2C)c(O)cc1O [Example 99] | 10 to 100 |  |
| CCCc1cc(-c2n[nH]c(C)c2-c2nc3ccccc3s2)c(O)cc1O [Example 100] | 10 to 100 |  |
| CCc1cc(-c2n[nH]cc2-c2ncc(C)s2)c(O)cc1O [Example 101] | 10 to 100 |  |
| CCc1cc(-c2n[nH]c(C(=O)O)c2-c2ncc(C)s2)c(O)cc1O [Example 102] | 10 to 100 |  |
| CCc1cc(-c2n[nH]c(C(F)(F)F)c2-c2ccccc2)c(O)cc1O [Example 103] | 10 to 100 |  |
| COc1ccc(-c2c(-c3cc(Cc4ccccc4)c(O)cc3O)n[nH]c2C)cc1 [Example 104, 4-benzyl-6-[4-(4-methoxy-phenyl)-5-methyl-1H-pyrazol-3-yl]-benzene-1,3-diol] | < 10 |  |
| Cc1c(CC(=O)NCc2ccc(-c3c[nH]nc3-c3cc(Cl)c(O)cc3O)cc2)c(=O)oc2cc(N)c(S(=O)(=O)O)cc12 [Example 105] | < 10 |  |
| O=C(NCc1ccc(-c2c[nH]nc2-c2cc(Cl)c(O)cc2O)cc1)c1ccc(-c2c3ccc(=O)cc-3oc3cc(O)ccc23)c(C(=O)O)c1 [Example 106, N-{4-[3-(5-Chloro-2,4-dihydroxy-phenyl)-1H-pyrazol-4-yl]-benzyl}-6-(6-hydroxy-3-oxo-3H-xanthen-9-yl)-isophthalamic acid] | < 10 |  |
| Cc1[nH]nc(-c2cc(Cl)ccc2O)c1-c1ccc2c(c1)OCCO2 [Example 107] | 10 to 100 |  |
| Cc1[nH]nc(-c2cc(F)ccc2O)c1-c1ccc2c(c1)OCCO2 [Example 108] | < 10 |  |
| Cc1[nH]nc(-c2cc(Cl)c(O)cc2O)c1-c1ccc2c(c1)OCCO2 [Example 109] |  | IC50 (Hsp90 IC50, activity class): < 10 µM |
| Cc1ccc(O)c(-c2n[nH]c(C)c2-c2ccc3c(c2)OCCO3)c1 [Example 110] | > 10 |  |
| Cc1[nH]nc(-c2ccc(S(N)(=O)=O)cc2)c1-c1ccc2c(c1)OCCO2 [Example 111] | > 10 |  |
